The compounds below were run against T1, human β3 adrenergic receptor (Homo sapiens, UniProt P13945) (assay: whole cell receptor coupled c-AMP assay (Emax relative to isoproterenol)). Conditions: % intrinsic activity: maximal response divided by isoproterenol maximal response times 100; transfected CHO cells; average of at least 3 runs.
T1 construct: expressed in transfected cells
Assay type: cell-based
Description: The genes encoding the human β1-adrenergic receptor (Frielle et al., Proc. Natl. Acad. Sci., 84:7920–7924, 1987), the human β2-adrenergic receptor (Kobika et al., Proc. Natl. Acad. Sci., 84:46–50, 1987, Emorine et al., Proc. Natl. Acad. Sci., 84:6995–6999, 1987) and the human β3 adrenergic receptor (Granneman et al., Molecular Pharmacology, 44(2):264–70, 1993) are individually subcloned into a phd expression vector (Grinnell et al., Bio/Technology, 5:1189–1192, 1987) and transfected into the DXB-11 Chinese hamster ovary (CHO) cell line by calcium phosphate precipitation methodology. The stably transfected cells are grown to 95% confluency in 95% Dulbecco's modified Eagles Medium (DMEM), 5% fetal bovine serum and 0.01% proline. Media is removed and the cells are washed with phosphate buffered (pH 7.4) saline (without magnesium and calcium). Cells are then lifted using an enzyme free cell dissociation solution (Specialty Media, Lavallette, N.J.) and pelleted by centrifugation.
Cells from each of the above cell lines are resuspended and added (20,000/well) to a 96-well plate. Cells are incubated at 37° C. with representative compounds of the invention for 20 minutes in buffer (Hank's balanced salt solution, 10 mM HEPES, 0.1% BSA, 1 mM L-ascorbic acid, 0.2% dimethyl sulfoxide, 1 mM 3-isobutyl-1-methylxanthine, pH 7.4). After halting the incubation with quench buffer (50 mM Na Acetate, 0.25% Triton X-100, pH 5.8), the c-AMP level is quantified by scintillation proximity assay (SPA) using a modification of the commercially available c-AMP kit (Amersham, Arlington Heights, Ill.) with rabbit anti-cAMP antibody (ICN Biomedicals, Aurora, Ohio) for the kit.
Sigmoidal dose response curves, from the whole cell receptor coupled c-AMP assay are fit to a four parameter logistic equation using non linear regression: y=(a−d)/(1+(Dose/c)^b)+d where a and d are responses at zero and maximal dose, b is the slope factor and c is the EC50 as previously described (DeLean et al., Am. J. Physiol., 235, E97-E102, 1978). EC50 is assessed as the concentration producing 50% of the maximum response to each agonist.
Isoproterenol is accepted in the art as a non-selective β3 agonist and is widely used as a comparator in evaluating the activity of compounds. See Trends in Pharm. Sci., 15:3, 1994. The % intrinsic activity (Emax) of representative compounds of the invention is assessed relative to isoproterenol by the compound's maximal response divided by the isoproterenol maximal response times 100.

T1 sequence (P13945 whole entry): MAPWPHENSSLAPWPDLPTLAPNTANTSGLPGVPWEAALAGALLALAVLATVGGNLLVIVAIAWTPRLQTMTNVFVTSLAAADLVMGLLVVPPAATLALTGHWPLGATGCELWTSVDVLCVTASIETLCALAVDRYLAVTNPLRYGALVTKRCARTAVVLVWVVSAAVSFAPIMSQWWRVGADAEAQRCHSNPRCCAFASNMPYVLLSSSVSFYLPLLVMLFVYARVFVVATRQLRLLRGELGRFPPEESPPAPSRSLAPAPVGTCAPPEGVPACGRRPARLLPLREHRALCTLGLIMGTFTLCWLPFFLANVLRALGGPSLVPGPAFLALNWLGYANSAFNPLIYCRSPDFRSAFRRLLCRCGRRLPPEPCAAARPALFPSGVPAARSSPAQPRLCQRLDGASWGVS

| Emax (%) ± SEM [%] | SMILES |
| --- | --- |
| 68.0 ± 4.1 | CC(C)(Cc1c[nH]c2c(-c3cccs3)cccc12)NC[C@H](O)COc1ccccc1-c1ccon1 [Example 109] |
| 52.4 ± 4.3 | C[C@H](Cn1ccc2c(OCC#N)cccc21)NC[C@H](O)COc1ccccc1-c1ccns1 [Example 151] |
| 69.0 ± 2.2 | CC(C)(Cc1c[nH]c2c(-c3ccc(C(N)=O)cc3)cccc12)NC[C@H](O)COc1ccccc1-c1cccs1 [Example 102] |
| 86.0 ± 4.0 | CC(C)(Cc1c[nH]c2c(-c3ccc(C(F)(F)F)cc3C(F)(F)F)cccc12)NC[C@H](O)COc1ccccc1-c1ccon1 [Example 111] |
| 74.0 ± 3.1 | CC(C)(Cc1c[nH]c2c(OCC#N)cccc12)NC[C@H](O)COc1ccccc1-c1ccsc1.Cl [Example 52] |
| 69.1 ± 3.8 | CC(C)(Cc1c[nH]c2c(-c3ccc(C(F)(F)F)cc3)cccc12)NC[C@H](O)COc1ccccc1-c1ccon1 [Example 105] |
| 64.5 ± 2.1 | CC(C)(Cc1c[nH]c2ccccc12)NC[C@H](O)COc1ccccc1-c1cnco1 [Example 34] |
| 35.1 ± 2.1 | CC(C)(Cc1c[nH]c2ccccc12)NC[C@H](O)COc1ccc(F)cc1-c1ccno1 [Example 81] |
| 73.3 ± 5.9 | CC(C)(Cc1c[nH]c2c(CCC#N)cccc12)NC[C@H](O)COc1ccccc1-c1cccs1 [Example 144] |
| 66.4 ± 8.7 | CC(C)(Cc1c[nH]c2c(C=CC#N)cccc12)NCC(O)COc1ccccc1-c1cccs1 (stereo not shown) [Example 143] |
| 22.2 ± 4.5 | O[C@@H](CNCCn1ccc2ccccc21)COc1ccccc1-c1cccs1 [Example 64] |
| 67.6 ± 5.2 | COC(=O)c1cccc2c(CC(C)(C)NC[C@H](O)COc3ccccc3-c3cccs3)c[nH]c12 [Example 76] |
| 79.0 ± 2.9 | CC(C)(Cc1c[nH]c2c(OCC(=O)NS(C)(=O)=O)cccc12)NC[C@H](O)COc1ccccc1-c1cccs1 [Example 176] |
| 78.0 ± 2.8 | CC(C)(Cc1c[nH]c2c(-c3cccc(C(F)(F)F)c3)cccc12)NC[C@H](O)COc1ccccc1-c1ccon1 [Example 38] |
| 64.2 ± 7.6 | CC(C)(Cc1c[nH]c2cccc(F)c12)NC[C@H](O)COc1ccccc1-c1cccs1 [Example 162] |
| 57.1 ± 2.4 | CC(C)(Cc1c[nH]c2c(-c3ccc(C(N)=O)cc3)cccc12)NC[C@H](O)COc1ccccc1-c1ccon1 [Example 103] |
| 73.8 ± 1.5 | CC(C)(Cc1c[nH]c2c(OCCNS(C)(=O)=O)cccc12)NC[C@H](O)COc1ccccc1-c1cccs1 [Example 177] |
| 83.5 ± 2.7 | CC(C)(Cc1c[nH]c2c(CCC(N)=O)cccc12)NC[C@H](O)COc1ccccc1-c1cccs1 [Example 140] |
| 59.2 ± 2.2 | CC(C)(Cc1c[nH]c2ccccc12)NC[C@H](O)COc1cccnc1-c1cccs1 [Example 125] |

| Emax (%) ± SEM [%] | SMILES |
| --- | --- |
| 58.7 ± 13.4 | C[C@H](Cn1ccc2cc(OCC#N)ccc21)NC[C@H](O)COc1ccccc1-c1cccs1 [Example 155] |
| 37.1 ± 4.0 | C[C@H](Cn1ccc2ccccc21)NC[C@H](O)COc1ccccc1-c1ccon1 [Example 165] |
| 90.4 ± 3.8 | CC(C)(Cc1c[nH]c2c(C(=O)O)cccc12)NC[C@H](O)COc1ccccc1-c1ccc(C#N)s1 [Example 90] |
| 58.9 ± 1.9 | CC(C)(Cc1c[nH]c2ccccc12)NC[C@H](O)COc1ccccc1-n1cccc1 [Example 32] |
| 28.3 ± 2.6 | CC(C)(Cc1c[nH]c2ccc(C#N)cc12)NC[C@H](O)COc1ccccc1-c1cccs1 [Example 74] |
| 46.5 ± 3.0 | C[C@H](CN1CCc2ccccc21)NC[C@H](O)COc1ccccc1-c1cccs1 [Example 128] |
| 66.5 ± 0.4 | CC(C)(Cc1c[nH]c2c(C=Cn3ccnc3)cccc12)NC[C@H](O)COc1ccccc1-c1cccs1 [Example 186] |
| 63.9 ± 1.6 | Cc1cc(-c2ccccc2OC[C@@H](O)CNC(C)(C)Cc2c[nH]c3ccccc23)on1 [Example 36] |
| 81.0 ± 3.2 | CC(C)(Cc1c[nH]c2c(NS(C)(=O)=O)cccc12)NC[C@H](O)COc1ccccc1-c1cccs1 [Example 27] |
| 72.7 ± 5.3 | CC(C)(Cc1c[nH]c2c(-c3ccc(C(F)(F)F)cc3C(F)(F)F)cccc12)NC[C@H](O)COc1ccccc1-c1cccs1 [Example 110] |
| 61.0 ± 4.5 | CCOC(=O)c1cccc(-c2cccc3c(CC(C)(C)NC[C@H](O)COc4ccccc4-n4cccc4)c[nH]c23)c1 [Example 42] |
| 53.9 ± 2.6 | CC(C)(Cc1c[nH]c2ccccc12)NC[C@H](O)COc1ccccc1-c1ccon1 [Example 164] |
| 78.1 ± 4.6 | CC(C)(Cc1c[nH]c2c(OCC(=O)[O-])cccc12)NC[C@H](O)COc1ccccc1-c1cccs1.[Na+] [Example 225] |
| 58.3 ± 1.3 | CC(C)(Cc1c[nH]c2ccccc12)NC[C@H](O)COc1ccccc1-c1ccsc1.Cl [Example 51] |
| 50.3 ± 2.2 | CC(C)(Cc1c[nH]c2ccccc12)NC[C@H](O)COc1ccccc1-n1ccc(C#N)c1 [Example 35] |
| 69.0 ± 2.3 | CC(C)(Cc1c[nH]c2ccccc12)NC[C@H](O)COc1ccccc1-c1ccc(C#N)s1.Cl [Example 11] |
| 56.0 ± 1.5 | CC(C)(Cc1c[nH]c2c(F)cccc12)NC[C@H](O)COc1ccccc1-c1nccs1 [Example 171] |
| 85.6 ± 7.8 | CC(C)(Cc1c[nH]c2ccccc12)NC[C@H](O)COc1ccccc1-c1ccc(S(N)(=O)=O)s1 [Example 191] |
| 32.1 ± 3.3 | CC(C)(CNC(=O)c1c[nH]c2ccccc12)NC[C@H](O)COc1ccccc1-c1cccs1 [Example 73] |

| SMILES | Emax (%) ± SEM [%] |
| --- | --- |
| CC(C)(Cc1c[nH]c2c(OCC#N)cccc12)NC[C@H](O)COc1ccccc1-c1ncco1.O=C(O)C(F)(F)F [Example 8] | 82.2 ± 3.8 |
| CC(C)(Cc1c[nH]c2c(OCC#N)cccc12)NC[C@H](O)COc1ccccc1-c1csc(C#N)c1.O=C(O)C(F)(F)F [Example 16] | 54.2 ± 2.2 |
| CC(C)(Cc1c[nH]c2c(OCC#N)cccc12)NC[C@H](O)COc1ccccc1-n1cccc1 [Example 1] | 64.1 ± 4.5 |
| Cc1cc(-c2ccccc2OC[C@@H](O)CNC(C)(C)Cc2c[nH]c3ccccc23)cs1.O=C(O)C(F)(F)F [Example 17] | 43.1 ± 3.0 |
| CC(Cc1cn(C)c2c(F)cc(F)cc12)NCC(O)COc1ccccc1-c1cccs1 (stereo not shown) [Example 197] | 34.5 ± 4.2 |

Same assay, conditions: CHO, % intrinsic activity relative to isoproterenol; transfected CHO cells

| Emax [%] | SMILES |
| --- | --- |
| 67 | CC(C)(Cc1c[nH]c2cc(C(=O)O)ccc12)NC[C@H](O)COc1ccccc1-c1nccs1 [Example 204] |

Same assay, conditions: CHO, % intrinsic activity: maximal response divided by isoproterenol maximal response times 100; transfected CHO cells; average of at least 3 runs

| Emax [%] | SMILES |
| --- | --- |
| < 10 | CC(C)(Cc1c[nH]c2cccc(C(=O)O)c12)NC[C@H](O)COc1ccccc1-c1cccs1 [Example 238] |
| 84.1 ± 1.8 | CC(C)(Cc1c[nH]c2c(-c3cccc(C(=O)O)c3)cccc12)NC[C@H](O)COc1ccccc1-c1cccs1 [Example 248] |
| 82.3 ± 4 | CC(C)(Cc1c[nH]c2cc(/C=C/c3nnn[nH]3)ccc12)NC[C@H](O)COc1ccccc1-c1cccs1 [Example 252] |
| 76.7 ± 4.4 | C[C@H](Cn1ccc2c(OCC(=O)O)cccc21)NC[C@H](O)COc1ccccc1-c1ccns1 [Example 235] |
| 86.3 ± 3.4 | CC(C)(Cc1c[nH]c2c(CCc3ccc(-c4nnn[nH]4)cc3)cccc12)NC[C@H](O)COc1ccccc1-c1cccs1 [Example 251] |
